Test results taken from US7381541B2, “Methods for producing animal feed preparations with astaxanthin-containing plants or parts of plants of the genus Tagetes” (SunGene GmbH & Co. KGaA, priority 2002, dated 2008).

Test system: trout
Test: Oral administration to trout in a standard trout feed: examination of bioavailability, pigmenting and performance parameters
Format: in vivo
Conditions: 8 weeks
Experimental: The trout feed comprising the inventive astaxanthin pigments is produced in accordance with Example IV and administered orally to trout (mean live mass 180 g). 3 concentrations are tested: 10, 20 and 40 mg of astaxanthin from the inventive astaxanthin pigmenting per kg of diet.
The trout are raised as described hereinafter: • The trout are given as standard an adaptation phase of 14 days. • During the feeding experiment, 10 trout are kept per pool in constant-flow plastic tanks of volume 80 l of water. The water temperature is 15° C. The water is biologically purified and at least 10% of the total amount of water is replaced by fresh water per day. • The illumination period is 12 hours per day to avoid premature sexual maturation of the animals. • The number of pools per treatment is 3. This is equivalent to 30 trout per dose level. • The diets are stored at −20° C. to avoid astaxanthin losses. The feed is thawed by portions (weekly) and administered. • The experimental period is 8 weeks. […]
The average feed consumption per fish, feed conversion and live mass gain are statistically evaluated.
The pigmenting of the fish is measured by reflectance spectrophotometric measurements (Minolta a value =red value at the fillet incision) and by determining the astaxanthin content (mg/kg) in the fillet in each case compared with the negative control.

CC1=C(/C=C/C(C)=C/C=C/C(C)=C/C=C/C=C(C)/C=C/C=C(C)/C=C/C2=C(C)C(=O)[C@@H](O)CC2(C)C)C(C)(C)C[C@H](O)C1=O [synthetic astaxanthin, astaxanthin]
performance parameters (feed intake, feed utilization, live mass gain): differences between or within treatments: no statistically secured differences
